IC50 data for 39 compounds are collected here from BindingDB's records for patent WO2025049746 (Eikon Therapeutics, 2025).

pIC50: −log10 of the molar value.

The target in experiment [1] is Bifunctional 3'-5' exonuclease/ATP-dependent helicase WRN (Homo sapiens, UniProt Q14191). The experiment in a line: ADP-Glo Kinase Assay. Here is the method:
ATPase activity was measured using the ADP-Glo Kinase Assay following the manufacturers recommended protocol.

Experiment [2] concerns the target T1, Bifunctional 3'-5' exonuclease/ATP-dependent helicase WRN [480-1251] (UniProt Q14191).
T1 construct: 480-1251
The experiment in a line: Biochemical Activity Assays. Here is the method: The pure fractions were pooled and desalted/buffer exchanged into storage buffer using a HiTrap desalting column. […] First, WRN alone was pre-incubated with DMSO or compound of interest for 15 minutes. To initiate the reaction, ATP, dsDNA substrate, and ssDNA competitor (ssDNA_comp: […]) were added and incubated at room temperature for 20 minutes at which point DNA unwinding activity was monitored by measuring Cy3 fluorescence. After obtaining the reading, the ATPase activity was measured using the ADP-Glo Kinase Assay following the manufacturers recommended protocol. […] Compounds were assayed in a 10-point dose response in duplicate at a 1% DMSO final assay concentration.

T1 sequence (Q14191 480-1251): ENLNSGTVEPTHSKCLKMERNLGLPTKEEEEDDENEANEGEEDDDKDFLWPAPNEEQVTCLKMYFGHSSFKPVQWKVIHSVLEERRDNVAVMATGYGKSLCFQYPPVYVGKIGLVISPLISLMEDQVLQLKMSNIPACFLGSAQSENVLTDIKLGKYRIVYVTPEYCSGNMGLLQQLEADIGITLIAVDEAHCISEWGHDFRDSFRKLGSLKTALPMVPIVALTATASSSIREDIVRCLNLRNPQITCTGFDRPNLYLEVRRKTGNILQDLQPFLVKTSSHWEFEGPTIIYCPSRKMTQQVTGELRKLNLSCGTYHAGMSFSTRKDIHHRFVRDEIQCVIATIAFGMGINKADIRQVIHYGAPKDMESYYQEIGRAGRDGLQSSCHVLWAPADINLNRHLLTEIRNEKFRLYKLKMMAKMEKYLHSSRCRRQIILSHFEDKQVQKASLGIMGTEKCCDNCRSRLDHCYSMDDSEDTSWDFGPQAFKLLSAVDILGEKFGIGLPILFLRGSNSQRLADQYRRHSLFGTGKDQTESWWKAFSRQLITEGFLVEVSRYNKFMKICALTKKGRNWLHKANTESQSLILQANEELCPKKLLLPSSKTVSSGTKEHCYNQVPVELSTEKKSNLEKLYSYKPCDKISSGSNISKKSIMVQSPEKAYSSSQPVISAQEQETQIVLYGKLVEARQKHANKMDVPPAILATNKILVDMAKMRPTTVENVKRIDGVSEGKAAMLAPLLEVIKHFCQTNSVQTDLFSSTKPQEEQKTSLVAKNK
Sequence of Bifunctional 3'-5' exonuclease/ATP-dependent helicase WRN (Q14191 whole entry): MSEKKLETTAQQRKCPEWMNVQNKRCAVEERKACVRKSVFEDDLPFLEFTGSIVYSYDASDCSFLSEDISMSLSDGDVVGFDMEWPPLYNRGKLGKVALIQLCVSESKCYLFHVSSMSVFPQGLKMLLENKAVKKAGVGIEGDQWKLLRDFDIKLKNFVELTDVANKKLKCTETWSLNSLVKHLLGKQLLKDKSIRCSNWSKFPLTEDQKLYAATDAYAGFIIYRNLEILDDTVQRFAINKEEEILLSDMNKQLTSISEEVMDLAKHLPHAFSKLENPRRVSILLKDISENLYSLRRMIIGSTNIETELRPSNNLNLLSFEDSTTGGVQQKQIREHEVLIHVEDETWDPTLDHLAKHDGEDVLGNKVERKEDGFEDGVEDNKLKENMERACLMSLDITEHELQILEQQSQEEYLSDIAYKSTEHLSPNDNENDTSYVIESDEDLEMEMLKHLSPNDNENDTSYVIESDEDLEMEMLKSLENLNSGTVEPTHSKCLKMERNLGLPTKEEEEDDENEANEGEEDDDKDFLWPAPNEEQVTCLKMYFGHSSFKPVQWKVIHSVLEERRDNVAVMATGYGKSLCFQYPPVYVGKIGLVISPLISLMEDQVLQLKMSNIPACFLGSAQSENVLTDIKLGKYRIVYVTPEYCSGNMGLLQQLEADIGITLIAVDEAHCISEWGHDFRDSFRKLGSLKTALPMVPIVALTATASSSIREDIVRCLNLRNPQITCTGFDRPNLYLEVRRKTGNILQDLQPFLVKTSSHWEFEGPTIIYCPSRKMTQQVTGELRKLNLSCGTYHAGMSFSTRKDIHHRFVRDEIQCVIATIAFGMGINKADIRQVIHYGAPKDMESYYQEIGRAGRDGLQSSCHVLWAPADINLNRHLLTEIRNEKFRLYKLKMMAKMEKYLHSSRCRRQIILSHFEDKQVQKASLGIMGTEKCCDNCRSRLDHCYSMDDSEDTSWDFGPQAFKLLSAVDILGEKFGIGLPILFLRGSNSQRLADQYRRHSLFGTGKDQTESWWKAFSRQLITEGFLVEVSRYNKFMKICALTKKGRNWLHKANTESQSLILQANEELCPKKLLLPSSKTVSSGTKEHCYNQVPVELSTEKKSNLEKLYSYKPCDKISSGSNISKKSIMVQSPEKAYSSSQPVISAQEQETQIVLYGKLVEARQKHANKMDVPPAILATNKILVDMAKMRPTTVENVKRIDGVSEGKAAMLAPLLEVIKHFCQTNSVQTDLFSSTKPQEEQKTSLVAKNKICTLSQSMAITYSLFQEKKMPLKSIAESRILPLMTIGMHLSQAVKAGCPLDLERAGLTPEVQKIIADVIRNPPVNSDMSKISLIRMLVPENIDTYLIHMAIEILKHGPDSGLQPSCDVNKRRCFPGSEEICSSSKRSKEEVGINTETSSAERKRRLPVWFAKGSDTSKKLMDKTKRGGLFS

Regarding `CCc1c(N2CCN(C(=O)c3ccccc3NC(=O)c3ccn[nH]3)CC2)c(=O)n2nc(C3=CCOCC3)nc2n1CC(=O)Nc1ccc(C(F)(F)F)cc1Cl` [WO2025049746, Example 40], the values for the pIC50 in experiment [1] and in experiment [2] were 6.90 and 7.21, respectively.
For `CCC1=C(N2CCN(C(=O)C3=C4NN=CC4CC=N3)CC2)C(=O)N2N=C(C3CCOCC3)NC2N1CC(=O)Nc1ccc(C(F)(F)F)cc1Cl` (stereo not drawn) [WO2025049746, Example 41] the same measures were 7.08 and 7.24.
On to `CCc1c(N2CCN(C(=O)c3csc4cncnc34)CC2)c(=O)n2nc(C3=CCOCC3)nc2n1CC(=O)Nc1ccc(C(F)(F)F)cc1Cl` [WO2025049746, Example 43], for which the pIC50 is 7.19 in experiment [1] and 7.38 in experiment [2].
In the same order, the values of `CCc1c(N2CCN(C(=O)c3cccc4c3ncn4C)CC2)c(=O)n2nc(C3=CCOCC3)nc2n1CC(=O)Nc1ccc(C(F)(F)F)cc1Cl` [WO2025049746, Example 44] are 7.08 and 7.29.
Regarding `CCc1c(N2CCN(C(=O)c3ccnc4cc[nH]c34)CC2)c(=O)n2nc(C3=CCOCC3)nc2n1CC(=O)Nc1ccc(C(F)(F)F)cc1Cl` [WO2025049746, Example 46], the pIC50 in experiment [1] is 7.28; in experiment [2], 7.44.
In the case of `CCc1c(N2CCN(C(=O)c3cncc4cc[nH]c34)CC2)c(=O)n2nc(C3=CCOCC3)nc2n1CC(=O)Nc1ccc(C(F)(F)F)cc1Cl` [WO2025049746, Example 47], the negative-log IC50 (pIC50) was 7.50 in experiment [1] and 7.62 in experiment [2].
With `CCc1c(N2CCN(C(=O)c3nccc4nn[nH]c34)CC2)c(=O)n2nc(C3=CCOCC3)nc2n1CC(=O)Nc1ccc(C(F)(F)F)cc1Cl` [WO2025049746, Example 48], the pIC50 in experiment [1] was 7.57; in experiment [2], 7.70.
In the same order, the values of `CCc1c(N2CCN(C(=O)c3cccc4c3nnn4C)CC2)c(=O)n2nc(C3=CCOCC3)nc2n1CC(=O)Nc1ccc(C(F)(F)F)cc1Cl` [WO2025049746, Example 49] are 6.89 and 7.33.
Regarding `CCc1c(N2CCN(C(=O)c3cccn4ccnc34)CC2)c(=O)n2nc(C3=CCOCC3)nc2n1CC(=O)Nc1ccc(C(F)(F)F)cc1Cl` [WO2025049746, Example 50], the values for the pIC50 in experiment [1] and in experiment [2] were 6.81 and 7.10, respectively.
For `CCc1c(N2CCN(C(=O)c3cccc4[nH]c(=O)[nH]c34)CC2)c(=O)n2nc(C3=CCOCC3)nc2n1CC(=O)Nc1ccc(C(F)(F)F)cc1Cl` [WO2025049746, Example 51] the same measures were 7.24 and 7.36.
With `CCc1c(N2CCN(C(C)=O)CC2)c(=O)n2nc(C3=CCOCC3)nc2n1CC(=O)Nc1ccc(C(F)(F)F)cc1Cl` [WO2025049746, Example 52], the pIC50 was 7.40 in experiment [1] and 7.54 in experiment [2].
In the same order, the values of `CCc1c(N2CCN(C(=O)CO)CC2)c(=O)n2nc(C3=CCOCC3)nc2n1CC(=O)Nc1ccc(C(F)(F)F)cc1Cl` [WO2025049746, Example 53] are 6.36 and 6.60.
In the case of `CCc1c(N2CCN(C(=O)C(C)O)CC2)c(=O)n2nc(C3=CCOCC3)nc2n1CC(=O)Nc1ccc(C(F)(F)F)cc1Cl` (stereo not drawn) [WO2025049746, Example 54], the negative-log IC50 (pIC50) in experiment [1] was 6.74; in experiment [2], 7.34.
As to `CCc1c(N2CCN(C(=O)C3(CO)CC3)CC2)c(=O)n2nc(C3=CCOCC3)nc2n1CC(=O)Nc1ccc(C(F)(F)F)cc1Cl` [WO2025049746, Example 55], the results for the negative logarithm of the IC50 (pIC50) in experiment [1] and in experiment [2] were 5.24 and 5.47, respectively.
For `CCc1c(N2CCN(C(=O)C(F)(F)CO)CC2)c(=O)n2nc(C3=CCOCC3)nc2n1CC(=O)Nc1ccc(C(F)(F)F)cc1Cl` [WO2025049746, Example 56] the same measures were 6.13 and 6.86.
Take `CCc1c(N2CCN(C(=O)C(F)(F)C3(O)CCC3)CC2)c(=O)n2nc(C3=CCOCC3)nc2n1CC(=O)Nc1ccc(C(F)(F)F)cc1Cl` [WO2025049746, Example 57]: the pIC50 in experiment [1] was 6.08; in experiment [2] it was 6.31.
In the same order, the values of `CCc1c(N2CCN(C(=O)C3CCCC3O)CC2)c(=O)n2nc(C3=CCOCC3)nc2n1CC(=O)Nc1ccc(C(F)(F)F)cc1Cl` (stereo not drawn) [WO2025049746, Example 58] are 5.90 and 6.73.
In the same order, the values of `CCc1c(N2CCN(S(C)(=O)=O)CC2)c(=O)n2nc(C3=CCOCC3)nc2n1CC(=O)Nc1ccc(C(F)(F)F)cc1Cl` [WO2025049746, Example 59] are 7.08 and 7.48.
`CCc1c(N2CCN(S(=O)(=O)C3CC3)CC2)c(=O)n2nc(C3=CCOCC3)nc2n1CC(=O)Nc1ccc(C(F)(F)F)cc1Cl` [WO2025049746, Example 60]: the negative-log IC50 (pIC50) in experiment [1] was 7.41; in experiment [2], 7.35.
In the same order, the values of `CCc1c(N2CCN(C(=O)Cn3cncn3)CC2)c(=O)n2nc(C3=CCOCC3)nc2n1CC(=O)Nc1ccc(C(F)(F)F)cc1Cl` [WO2025049746, Example 61] are 6.90 and 7.18.
In the same order, the values of `CCc1c(N2CCN(C(=O)C(C)n3cncn3)CC2)c(=O)n2nc(C3=CCOCC3)nc2n1CC(=O)Nc1ccc(C(F)(F)F)cc1Cl` (stereo not drawn) [WO2025049746, Example 62] are 6.38 and 6.88.
Regarding `CCc1c(N2CCN(c3ccncn3)CC2)c(=O)n2nc(C3=CCOCC3)nc2n1CC(=O)Nc1ccc(C(F)(F)F)cc1Cl` [WO2025049746, Example 66], the pIC50 in experiment [1] was 7.19; in experiment [2], 7.34.
For `CCc1c(N2CCN(C(=O)c3ncnc(C)c3O)CC2)c(=O)n2nc(C3=CCOCC3)nc2n1CC(=O)NC12CC(C(F)(F)C(F)(F)F)(C1)C2` [WO2025049746, Example 69] the same measures were 6.63 and 6.85.
For the compound `CCc1c(N2CCN(C(=O)c3ncnc(C)c3O)CC2)c(=O)n2nc(C3=CCOCC3)nc2n1CC(=O)NC12COC(C(F)(F)F)(C1)C2` [WO2025049746, Example 70], the figures for the pIC50 in experiment [1] and in experiment [2] were 6.07 and 6.13, respectively.
For the compound `CCc1c(N2CCN(C(=O)c3ncnc(C)c3O)CC2)c(=O)n2nc(C3=CCOCC3)nc2n1CC(=O)Nc1ccc(C(F)(F)C(F)(F)Cl)cc1` [WO2025049746, Example 71], the negative-log IC50 (pIC50) in experiment [1] was 7.58; in experiment [2], 7.73.
In the same order, the values of `CCc1c(N2CCN(C(=O)c3ncnc(C)c3O)CC2)c(=O)n2nc(C3=CCOCC3)nc2n1CC(=O)Nc1ccc(OC(F)(F)Cl)cc1` [WO2025049746, Example 72] are 7.84 and 7.91.
In the same order, the values of `CCc1c(N2CCN(C(=O)c3ncnc(C)c3O)CC2)c(=O)n2nc(N(C)C)nc2n1CC(=O)Nc1ccc(C(F)(F)F)cc1C` [WO2025049746, Example 77] are 7.21 and 7.35.
Turning to `CCc1c(N2CCN(C(=O)c3ncnc(C)c3O)CC2)c(=O)n2nc(C3CC3)nc2n1CC(=O)Nc1ccc(C(F)(F)F)cc1C` [WO2025049746, Example 78], the pIC50 was 6.71 in experiment [1] and 7.15 in experiment [2].
Turning to `CCc1c(N2CCN(C(=O)c3ncnc(C)c3O)CC2)c(=O)n2nc(C3CCC3)nc2n1CC(=O)Nc1ccc(C(F)(F)F)cc1C` [WO2025049746, Example 79], the negative logarithm of the IC50 (pIC50) in experiment [1] was 6.27; in experiment [2], 6.34.
For `CCc1c(N2CCN(C(=O)c3nccc4nc[nH]c34)CC2)c(=O)n2nc(N(C)C)nc2n1CC(=O)Nc1ccc(C(F)(F)F)cc1Cl` [WO2025049746, Example 80] the same measures were 7.36 and 7.57.
For `CCc1c(N2CCN(C(C)=O)CC2)c(=O)n2nc(N(C)C)nc2n1CC(=O)Nc1ccc(C(F)(F)F)cc1Cl` [WO2025049746, Example 81] the same measures were 6.27 and 6.76.
For `CCc1c(N2CCN(C(=O)c3ccccc3NS(C)(=O)=O)CC2)c(=O)n2nc(N(C)C)nc2n1CC(=O)Nc1ccc(C(F)(F)F)cc1Cl` [WO2025049746, Example 82] the same measures were 7.23 and 7.39.
Regarding `CCc1c(N2CCN(C(=O)c3cn(C)nc3O)CC2)c(=O)n2nc(N(C)C)nc2n1CC(=O)Nc1ccc(C(F)(F)F)cc1Cl` [WO2025049746, Example 83], the pIC50 is 7.19 in experiment [1] and 7.35 in experiment [2].
In the case of `CCc1c(N2CCN(C(=O)c3nc4n(c(=O)c3OCc3ccccc3)CCOC4)CC2)c(=O)n2nc(N(C)C)nc2n1CC(=O)Nc1ccc(C(F)(F)F)cc1Cl` [WO2025049746, Example 84], the negative-log IC50 (pIC50) in experiment [1] is 7.39; in experiment [2], 7.42.
In the same order, the values of `CCc1c(N2CCN(C(=O)c3ccccc3NS(=O)(=O)C3CC3)CC2)c(=O)n2nc(N(C)C)nc2n1CC(=O)Nc1ccc(C(F)(F)F)cc1Cl` [WO2025049746, Example 85] are 7.45 and 7.55.
As to `CCc1c(N2CCN(C(=O)c3nc4n(c(=O)c3O)CCOC4)CC2)c(=O)n2nc(-c3ccc4c(c3)OCO4)nc2n1CC(=O)Nc1ccc(C(F)(F)F)cc1Cl` [WO2025049746, Example 86], the negative-log IC50 (pIC50) in experiment [1] and in experiment [2] was 7.67 each time.
Regarding `CCc1c(N2CCN(C(=O)c3ccccc3NS(=O)(=O)C3CC3)CC2)c(=O)n2nc(-c3ccc4c(c3)OCO4)nc2n1CC(=O)Nc1ccc(C(F)(F)F)cc1Cl` [WO2025049746, Example 87], the pIC50 in experiment [1] is 6.80; in experiment [2] it was 6.86.
Turning to `CCc1c(N2CCN(C(=O)c3nccc4nc[nH]c34)CC2)c(=O)n2nc(-c3ccc4c(c3)OCO4)nc2n1CC(=O)Nc1ccc(C(F)(F)F)cc1Cl` [WO2025049746, Example 88], the figures for the negative-log IC50 (pIC50) in experiment [1] and in experiment [2] were 7.31 and 7.54, respectively.
On to `CCc1c(N2CCN(C(C)=O)CC2)c(=O)n2nc(-c3ccc4c(c3)OCO4)nc2n1CC(=O)Nc1ccc(C(F)(F)F)cc1Cl` [WO2025049746, Example 89], for which the figures for the pIC50 in experiment [1] and in experiment [2] were 6.60 and 6.62, respectively.
